# Test results published in paper PMC9854584, “Synergistic Activity of Pep16, a Promising New Antibacterial Pseudopeptide against Multidrug-Resistant Organisms, in Combination with Colistin against Multidrug-Resistant Escherichia coli, In Vitro and in a Murine Peritonitis Model” (Antibiotics, 2023).
# Like-named read-outs stand apart in the source and are kept apart here.
# Columns and labels:
# [1] = system: E. coli Af31; assay: MIC, broth microdilution (EUCAST); assay type: cell-based, Escherichia coli
# Method: (§1) The MICs of Pep16 and colistin were determined by the broth microdilution method in accordance with the EUCAST guidelines (www.eucast.org, accessed on 2 September 2022). In order to investigate for the presence of a potential inoculum effect in vitro, MICs were performed with various inoculum sizes, increasing from 10^5 to 10^7 CFU/mL. To explore MIC variations in the presence of albumin, MICs were also determined in Mueller–Hinton broth (MHB) supplemented with 4% human albumin.
# [2] = system: E. coli B119; assay: MIC, broth microdilution (EUCAST); assay type: cell-based, Escherichia coli; settings: B119, inoculum 10^5 CFU/mL
# Method: as §1
# [3] = system: E. coli CFT073-pTOPO-COLR; assay: MIC, broth microdilution (EUCAST); assay type: cell-based, Escherichia coli
# Method: as §1
# [4] = system: E. coli CFT073-pTOPO; assay: MIC, broth microdilution (EUCAST); assay type: cell-based, Escherichia coli; settings: at least three experiments
# Method: as §1
# [5] = system: E. coli CFT073-pTOPO; assay type: in vivo, mice; settings: peritonitis due to CFT073-pTOPO; for mean bacterial counts in the spleen / mice that died before the planned time of the sacrifice: single s.c. dose 2 h after inoculation: Pep16 10 mg/kg, colistin 10 mg/kg, cefotaxime 100 mg/kg, or colistin 10 + Pep16 10 mg/kg; for mice that died before the planned time of the sacrifice: planned sacrifice 3, 6, 12 h
# Method: (§2) Animal experiments were performed in accordance with the prevailing regulations and ethical requirements of the Direction of Veterinary Services of Paris. The experimental protocol was approved by the French Ministry of Research and by the Ethics Committee for Animal Experiments (No. APAFIS 22330-2019092415325730). Animals were housed in regulation cages and given free access to food and water. Swiss ICR-strain female mice weighing 25 to 30 g were used.
# We used the lethal murine intraperitoneal infection model previously developed by our group. Mice were inoculated by the intraperitoneal route with 250 μL of a bacterial suspension in porcine mucin 10% (Sigma–Aldrich), corresponding to a final inoculum of approximately 2.5 × 10^7 CFU/mL. The strains tested were CFT073-pTOPO and CFT073-pTOPO-COLR. Two hours after inoculation, at least three mice per strain were sacrificed to determine the pre-therapeutic bacterial loads, referred to as start-of-treatment controls, since all untreated mice died within 12 h (data not shown), preventing the use of end-of-treatment controls. Each treatment group was composed of 9 mice, which were administered a single dose of antibiotic (or of a combination of antibiotics) subcutaneously 2 h after inoculation. The treatment groups were Pep16 10 mg/kg, colistin 10 mg/kg, cefotaxime 100 mg/kg, and Pep16 10 mg/kg + colistin 10 mg/kg. Doses of cefotaxime and colistin were chosen based on previous pharmacokinetic analysis, while the dose of Pep16 was chosen based on the present survival study and pharmacokinetic analysis. In each treatment group, mice were sacrificed by 200 µL of pentobarbital 40% (Euthasol VetVR, Dechra Veterinary Products, Montigny-Le-Bretonneux, France) in a sequential way: 3 mice 3 h after treatment, 3 mice 6 h after treatment, and 3 mice 12 h after treatment. Immediately after death, the spleens were extracted and homogenized. Samples were plated on LB agar. To detect resistant mutants after treatment with colistin, samples were also plated on LB agar containing colistin at 4× MIC. The MICs of colistin-resistant mutants were determined (see above). Colony counts were then determined after 48 h of culture. Endpoints were spontaneous death (before the planned time of the sacrifice), bacterial counts in the spleen, and the emergence of colistin-resistant mutants. The assessment criteria of the murine model were: (i) mortality rate; (ii) bacterial counts in peritoneal fluid (PF) and the spleen; and (iii) the selection of colistin-resistant mutants after 24 h of treatment.
# [6] = system: E. coli CFT073-pTOPO; assay: Flow cytometry study of membrane permeability (Live/Dead BacLight, SYTO9/PI); assay type: cell-based, Escherichia coli; settings: 30 min exposure, 10^6 CFU/mL; colistin 0.25 mg/L (0.25x MIC), Pep16 16 mg/L (0.25x MIC), alone or combined; positive control 90% ethanol; D/M = Q3/(Q1+Q2+Q3)
# Method: Flow cytometry was used to investigate membrane permeability after exposure to antibiotics. Experiments were executed on a Fortessa X-20 flow cytometer (Becton Dickinson, Le Pont de Claix, France) equipped with a 488 nm laser. Exponentially growing E. coli CFT073-pTOPO cells at 10^6 CFU/mL were obtained and incubated with colistin and/or Pep16 at 0.25× MIC during 30 min. […] The samples were centrifuged and reconstituted in phosphate-buffered saline twice. Cells were then stained by using a Live/Dead BacLight kit (Molecular Probes, Invitrogen, Cergy-Pontoise, France) as previously shown [20]. The kit consists of two fluorescent intercalating agents, propidium iodide (PI) and SYTO9, which both stain nucleic acids. The green-fluorescing SYTO9 is able to enter all cells when used alone, whereas the red-fluorescing PI only enters cells with damaged cytoplasmic membranes. The appropriate mixture of the SYTO9 and PI stains enables differentiation between bacteria with intact cytoplasmic membranes and dead bacteria with permeabilized cytoplasmic membranes. Optical filters were set up such that red fluorescence was measured at 635 nm and green fluorescence was measured at 500 nm. The proportion of dead cells (colored in red)/marked cells (colored in red and/or green) was retrieved for each condition. A minimum of 50,000 events per condition were recorded.
# [7] = system: E. coli CFT073-pTOPO-COLR; assay: Murine peritoneal infection model; assay type: in vivo, mice; settings: peritonitis due to CFT073-pTOPO-COLR; single s.c. dose: Pep16 10 mg/kg, colistin 10 mg/kg, or colistin 10 + Pep16 10 mg/kg
# Method: as §2
# We used the lethal murine intraperitoneal infection model previously developed by our group. Mice were inoculated by the intraperitoneal route with 250 μL of a bacterial suspension in porcine mucin 10% (Sigma–Aldrich), corresponding to a final inoculum of approximately 2.5 × 10^7 CFU/mL. The strains tested were CFT073-pTOPO and CFT073-pTOPO-COLR. Two hours after inoculation, at least three mice per strain were sacrificed to determine the pre-therapeutic bacterial loads, referred to as start-of-treatment controls, since all untreated mice died within 12 h (data not shown), preventing the use of end-of-treatment controls. Each treatment group was composed of 9 mice, which were administered a single dose of antibiotic (or of a combination of antibiotics) subcutaneously 2 h after inoculation. […] The MICs of colistin-resistant mutants were determined (see above). Colony counts were then determined after 48 h of culture. […]
# [8] = system: colistin-resistant mutants of E. coli CFT073-pTOPO and B119; assay: MIC for colistin-resistant mutants selected in time-kill curves; assay type: cell-based, Escherichia coli; settings: mutants after 24 h of exposure to colistin alone in time-kill curves
# Method: as §1
# Time–kill curves were performed with Pep16 (4–128 mg/L) and colistin (0.5–8 mg/L) alone or in combination. Exponentially growing E. coli cells were incubated in 10 mL of Mueller–Hinton broth to obtain 10^6 CFU/mL with Pep16 and/or colistin. Viable counts were enumerated by plating 100 μL of appropriate culture dilutions on to lysogeny broth (LB) agar plates after 0, 1, 3, 6, and 24 h of incubation at 37 °C and expressed in log10 CFU/mL. The lower limit of detection was 1 log10 CFU/mL. A bactericidal effect is defined as a 3 log10 decrease in CFU counts compared with the initial inoculum. A synergistic effect is defined as a 2 log10 decrease in CFU counts between the combination and its most-active constituent after 24 h. […] The MICs of colistin-resistant mutants after 24 h of colistin monotherapy were determined (see above). […]
Compound,"MIC ([1]; Escherichia coli, AF31)","MIC ([2]; Escherichia coli, read-out: MIC)",MIC ([3]; Escherichia coli),"MIC ([4]; Escherichia coli, CFT073PTOPO, inoculum 10^5 CFU/mL)","MIC ([4]; Escherichia coli, CFT073PTOPO, inoculum 10^6 CFU/mL)","MIC ([4]; Escherichia coli, CFT073PTOPO, inoculum 10^7 CFU/mL)",mean bacterial counts in the spleen [5],mice that died before the planned time of the sacrifice [5],"MIC ([1]; Af31 (mcr-1 plasmid), inoculum 10^5 CFU/mL)",MIC [2],"MIC ([3]; CFT073-pTOPO-COLR, inoculum 10^5 CFU/mL)",MIC ([4]; inoculum 10^5 CFU/mL),MIC ([4]; inoculum 10^6 CFU/mL),MIC ([4]; inoculum 10^7 CFU/mL),percentage of dead cells/marked cells (D/M) [6],proportion of mice with colistin-resistant mutants ([5]; colistin 10 mg/kg alone or with Pep16 10 mg/kg),"mean counts of colistin-resistant mutants in the spleens ([5]; colistin 10 mg/kg alone or with Pep16 10 mg/kg, LB agar with colistin at 4x MIC)",mean bacterial counts in the spleen [7],mice that died before the planned time of the sacrifice [7],MIC of colistin-resistant mutants [8]
"CO/N=C(\C(=O)N[C@@H]1C(=O)N2C(C(=O)O)=C(COC(C)=O)CS[C@H]12)c1csc(N)n1 [Cefotaxime, cefotaxime]",0.06 µg/mL,0.06 µg/mL,0.06 µg/mL,0.06 µg/mL,1 µg/mL,8 µg/mL,3.6 × 10^6 CFU/g,0/9,,,,,,,,,,,,
colistin sulfate,,,,,,,2.7 × 10^8 CFU/g,1/9,8 µg/mL,1 µg/mL,16 µg/mL,1 µg/mL,2 µg/mL,32 µg/mL,60%,9/9,1.6 × 10^3 CFU/g,4.0 × 10^8 CFU/g,5/9,8 to 16 µg/mL
